Among the data in patent US12338219B2, “Antimalarial agents” (Merck Sharp & Dohme LLC, priority 2019, dated 2025) are EC50 values, retold here.

Each structure is given as a SMILES string.

The subject of this assay is parasites (ring stage parasites, parasite growth). Kind of assay: Parasite LDH growth assay (Parasite Assay), antiparasite potency. The class given is cell-based. To be noted: 72 hours growth, LDH readout. The method in brief: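 Ring-stage culture was adjusted to 0.7% parasitemia and 2% haematocrit in bicarbonate-buffered RPMI-Hepes with heat-inactivated human serum and 0.5% albumax, then added to compound. Plates were incubated 72 h at 37 °C in gassed humidified boxes, frozen at −80 °C overnight and thawed, and growth was read by LDH assay.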

With `COCC[C@H]([C@@H]1C[C@H]1C(=O)NC1CC(C)(C)Oc2c(Cl)cccc21)N1C(=N)NC(C)(C)CC1=O` (stereo partly drawn) [Example 112B], under “Table 3”, the EC50 (commonly the concentration at which the effect is half-maximal) is 9.4 nM.
Molecule `COCC[C@H]([C@@H]1C[C@H]1C(=O)N[C@@H]1CC(C)(C)Oc2c(F)cc(F)cc21)N1C(=N)NC(C)(C)CC1=O` [Example 113A] displayed an EC50 (72 h, Table 3) of 19 nM.
Same read-out and setting: with `COCC[C@H]([C@@H]1C[C@H]1C(=O)N[C@H]1CC(C)(C)Oc2c(F)cc(F)cc21)N1C(=N)NC(C)(C)CC1=O` [Example 113B] the figure was 7.5 nM; with `COCC[C@H]([C@@H]1C[C@H]1C(=O)N[C@@H]1CC(C)(C)Oc2c(C(F)(F)F)ccc(F)c21)N1C(=N)NC(C)(C)CC1=O` [Example 114A], 89 nM.
Under “72 h, Table 3”, `COCC[C@H]([C@@H]1C[C@H]1C(=O)N[C@H]1CC(C)(C)Oc2c(C(F)(F)F)ccc(F)c21)N1C(=N)NC(C)(C)CC1=O` [Example 114B] had an EC50 of 5.1 nM.
Take `CC1(C)CC(=O)N([C@H](c2cccnc2)[C@@H]2C[C@H]2C(=O)N[C@@H]2CC(C)(C)Oc3c(C(F)(F)F)ccc(F)c32)C(=N)N1` [Example 115A]: the EC50 (72 h, Table 3) is 6.6 nM.
Same read-out and setting: under `CC1(C)CC(=O)N([C@H](c2cccnc2)[C@@H]2C[C@H]2C(=O)N[C@H]2CC(C)(C)Oc3c(C(F)(F)F)ccc(F)c32)C(=N)N1` [Example 115B] stands 1 nM.
On the same count and under the same terms, with `COCC[C@H]([C@@H]1C[C@H]1C(=O)N[C@H]1CC(C)(C)Oc2cccc(Cl)c21)N1C(=N)NC(C)(C)CC1=O` [Example 116A] the figure was 0.8 nM; with `COCC[C@H]([C@@H]1C[C@H]1C(=O)N[C@@H]1CC(C)(C)Oc2cccc(Cl)c21)N1C(=N)NC(C)(C)CC1=O` [Example 116B], 18 nM; with `CC1(C)CC(=O)N(C[C@@H]2C[C@H]2C(=O)N[C@H]2CC(C)(C)Oc3cccc(OC(F)(F)F)c32)C(=N)N1` [Example 118], 63 nM.
On the same count and under the same terms, with `CC1(C)CC(=O)N(C[C@@H]2C[C@H]2C(=O)N[C@H]2CC(C)(C)Oc3cccc(Cl)c32)C(=N)N1` [Example 119] the figure was 26 nM; with `CC1(C)CC(=O)N([C@H](c2cccnc2)[C@@H]2C[C@H]2C(=O)N[C@H]2CC(C)(C)Oc3ccc(Cl)cc32)C(=N)N1` [Example 120], 1 nM.
`CC1(C)CC(=O)N([C@H](c2cccnc2)[C@@H]2C[C@H]2C(=O)NC2CC(C)(C)Oc3c(Cl)cccc32)C(=N)N1` (stereo partly drawn) [Example 121A]: under “72 h, Table 3”, a half-maximal response (EC50) required 2.5 nM. Against the preceding molecule, the EC50 is about 2.5-fold higher.
Consider `CC1(C)CC(=O)N([C@H](c2cccnc2)[C@@H]2C[C@H]2C(=O)NC2CC(C)(C)Oc3c(Cl)cccc32)C(=N)N1` (stereo partly drawn) [Example 121B], for which the concentration giving a half-maximal response (EC50) (Table 3) came to 2 nM.
For `CC1(C)CC(=O)N([C@H](c2cccnc2)[C@@H]2C[C@H]2C(=O)NC2CC(C)(C)Oc3c(F)cc(F)cc32)C(=N)N1` (stereo partly drawn) [Example 122A], for the setting “72 h, Table 3”, the concentration for a half-maximal effect (EC50) came to 2.3 nM. This lies in the single-digit nanomolar range.
Same read-out and setting: under `CC[C@]1(C)CC(=O)N([C@H](CCOC)[C@@H]2C[C@H]2C(=O)N[C@H]2CC(C)(C)Oc3ccc(C)cc32)C(=N)N1` [Example 123] stands 2 nM; under `CC[C@]1(C)CC(=O)N([C@H](CCOC)[C@@H]2C[C@H]2C(=O)N[C@H]2CC(C)(C)Oc3ccc(Cl)cc32)C(=N)N1` [Example 124], 0.8 nM; under `CC1(C)CC(=O)N(C[C@@H]2C[C@H]2C(=O)NC2CC(C)(C)Oc3ccc(OC(F)(F)F)cc32)C(=N)N1` (stereo partly drawn) [Example 125A], 231 nM.
Molecule `CC1(C)CC(=O)N(C[C@@H]2C[C@H]2C(=O)NC2CC(C)(C)Oc3ccc(OC(F)(F)F)cc32)C(=N)N1` (stereo partly drawn) [Example 125B] gave an EC50 (Table 3) of 160 nM.
Molecule `COCC[C@H]([C@@H]1C[C@H]1C(=O)NC1CC(C)(C)Oc2ccc(OC(F)(F)F)cc21)N1C(=N)NC(C)(C)CC1=O` (stereo partly drawn) [Example 126A] yielded an EC50 (72 h, Table 3) of 4.7 nM. In other words, the single-digit nanomolar range.
For `COCC[C@H]([C@@H]1C[C@H]1C(=O)NC1CC(C)(C)Oc2ccc(OC(F)(F)F)cc21)N1C(=N)NC(C)(C)CC1=O` (stereo partly drawn) [Example 126B], it took 8.4 nM to reach a half-maximal effect (Table 3) (EC50).
Consider `Cc1ccc2c(c1)[C@@H](NC(=O)[C@@H]1C[C@H]1CN1C(=N)NC(C)(C)CC1=O)CC(C)(C)O2` [Example 128], for which, under “72 h, Table 3”, the EC50 is 280 nM.
Under “72 h, Table 3”, `CC[C@]1(C)CC(=O)N([C@H](CCOC)[C@@H]2C[C@H]2C(=O)NC2CC(C)(C)Oc3ccc(OC(F)(F)F)cc32)C(=N)N1` (stereo partly drawn) [Example 129A] showed an EC50 of 1.3 nM.
On to `CC[C@]1(C)CC(=O)N([C@H](CCOC)[C@@H]2C[C@H]2C(=O)NC2CC(C)(C)Oc3ccc(OC(F)(F)F)cc32)C(=N)N1` (stereo partly drawn) [Example 129B], for which the EC50 (Table 3) stood at 2.5 nM.
`COCC[C@H]([C@@H]1C[C@H]1C(=O)NC1CC2(CCC2)Oc2ccccc21)N1C(=N)NC(C)(C)CC1=O` (stereo partly drawn) [Example 131A]: the EC50 (72 h, Table 3) was 6.8 nM.
For `COCC[C@H]([C@@H]1C[C@H]1C(=O)NC1CC2(CCC2)Oc2ccccc21)N1C(=N)NC(C)(C)CC1=O` (stereo partly drawn) [Example 131B], the half-maximal effective concentration (EC50) (Table 3) stood at 6.1 nM.
Take `COCC[C@H]([C@@H]1C[C@H]1C(=O)N[C@H]1CC(C)(C)Oc2ccc(C)cc21)N1C(=N)NC(C)(C)CC1=O` [Example 132]: the concentration for a half-maximal effect (EC50) (72 h, Table 3) amounted to 6.7 nM.
Molecule `COCC[C@H]([C@@H]1C[C@H]1C(=O)N[C@@H]1CC(C)(C)Oc2cc(OC(F)(F)F)ccc21)N1C(=N)NC(C)(C)CC1=O` [Example 134A] returned a 50% effective concentration (EC50) (72 h, Table 3) of 71 nM.
On the same count and under the same terms, with `COCC[C@H]([C@@H]1C[C@H]1C(=O)N[C@H]1CC(C)(C)Oc2cc(OC(F)(F)F)ccc21)N1C(=N)NC(C)(C)CC1=O` [Example 134B] the figure was 25 nM.
Same read-out and setting: with `CC1(C)CC(=O)N(C[C@@H]2C[C@H]2C(=O)N[C@H]2CC3(CCC3)Oc3ccccc32)C(=N)N1` [Example 135] the figure was 190 nM; with `Cc1cc2c(cc1Cl)[C@@H](NC(=O)[C@@H]1C[C@H]1CN1C(=N)NC(C)(C)CC1=O)CC(C)(C)O2` [Example 136], 160 nM.
On the same count and under the same terms, under `COCC[C@H]([C@@H]1C[C@H]1C(=O)N[C@@H]1CC(C)(C)Oc2cc(C)c(Cl)cc21)N1C(=N)NC(C)(C)CC1=O` [Example 137A] stands 12 nM; under `COCC[C@H]([C@@H]1C[C@H]1C(=O)N[C@H]1CC(C)(C)Oc2cc(C)c(Cl)cc21)N1C(=N)NC(C)(C)CC1=O` [Example 137B], 6.4 nM.
`COCC[C@H]([C@@H]1C[C@H]1C(=O)N[C@H]1CC(C)(C)Oc2cc(C)c(C)cc21)N1C(=N)NC(C)(C)CC1=O` [Example 138A]: the EC50 (72 h, Table 3) is 7.4 nM.
Same read-out and setting: under `COCC[C@H]([C@@H]1C[C@H]1C(=O)N[C@@H]1CC(C)(C)Oc2cc(C)c(C)cc21)N1C(=N)NC(C)(C)CC1=O` [Example 138B] stands 18 nM; under `CC1C[C@H](NC(=O)[C@@H]2C[C@H]2CN2C(=N)NC(C)(C)CC2=O)c2cc(F)ccc2O1` (stereo partly drawn) [Example 139A], 99 nM.
On to `CC1C[C@H](NC(=O)[C@@H]2C[C@H]2CN2C(=N)NC(C)(C)CC2=O)c2cc(F)ccc2O1` (stereo partly drawn) [Example 139B], for which a half-maximal response (Table 3) (EC50) required 130 nM. In other words, the sub-micromolar range.
For the molecule `CC1(C)CC(=O)N(C[C@@H]2C[C@H]2C(=O)N[C@H]2CC(C3CC3)Oc3ccccc32)C(=N)N1` (stereo partly drawn) [Example 140A], the midpoint of the response (72 h, Table 3), the EC50, lay at 220 nM. This counts as sub-micromolar.
`CC1(C)CC(=O)N(C[C@@H]2C[C@H]2C(=O)N[C@H]2CC(C3CC3)Oc3ccccc32)C(=N)N1` (stereo partly drawn) [Example 140B]: the response (Table 3) was half-maximal at 280 nM (EC50).
In turn, `CCC1(CC)CC(=O)N([C@H](CCOC)[C@@H]2C[C@H]2C(=O)N[C@@H]2CC(C)(C)Oc3ccccc32)C(=N)N1` [Example 141] returned a 50% effective concentration (EC50) (72 h, Table 4 (unit inferred)) of 4.7 nM.
Still for that read-out and setting: under `CCC1(CC)CC(=O)N([C@H](CCOC)[C@@H]2C[C@H]2C(=O)N[C@H]2c3ccccc3OC(C)(C)[C@@H]2O)C(=N)N1` [Example 144] stands 165 nM.
The same measure, in the same setting: under `CCC1(CC)CC(=O)N([C@H](CCOC)[C@@H]2C[C@H]2C(=O)N[C@@H]2c3ccccc3OC(C)(C)[C@H]2O)C(=N)N1` [Example 145] stands 8.4 nM.
The same measure, in the same setting: under `CCC1(CC)CC(=O)N([C@H](CCOC)[C@@H]2C[C@H]2C(=O)N[C@H]2CC(C)(C)Oc3ccc(Cl)cc32)C(=N)N1` [Example 146] stands 1.1 nM; under `CCC1(CC)CC(=O)N([C@H](CCOC)[C@@H]2C[C@H]2C(=O)NC2CC(C)(C)Oc3c(Cl)cccc32)C(=N)N1` (stereo partly drawn) [Example 148A], 2.7 nM.
With `CCC1(CC)CC(=O)N([C@H](CCOC)[C@@H]2C[C@H]2C(=O)NC2CC(C)(C)Oc3c(Cl)cccc32)C(=N)N1` (stereo partly drawn) [Example 148B], the half-maximal effective concentration (EC50) (Table 4 (unit inferred)) was determined as 1.9 nM.
In turn, `CCC1(CC)CC(=O)N([C@H](CCOC)[C@@H]2C[C@H]2C(=O)NC2CC(C)(C)Oc3cccc(Cl)c32)C(=N)N1` (stereo partly drawn) [Example 149A] returned an EC50 (72 h, Table 4 (unit inferred)) of 1 nM. This counts as single-digit nanomolar.
For `CCC1(CC)CC(=O)N([C@H](CCOC)[C@@H]2C[C@H]2C(=O)NC2CC(C)(C)Oc3cccc(Cl)c32)C(=N)N1` (stereo partly drawn) [Example 149B], a half-maximal response (Table 4 (unit inferred)) (EC50) required 1.2 nM.
`CCC1(CC)CC(=O)N([C@H](CCOC)[C@@H]2C[C@H]2C(=O)N[C@@H]2c3cc(Cl)ccc3OC(C)(C)[C@H]2O)C(=N)N1` [Example 150] displayed an EC50 (72 h, Table 4 (unit inferred)) of 3.9 nM.
